According to US9937145B2, “Sulfamate derivative compound for use in preventing or treating epilepsy” (Bio-Pharm Solutions Co., Ltd., priority 2013, dated 2018):
Like-named read-outs stand apart in the source and are kept apart here.

Legend:
Format in all cases: in vivo
male SD rats = test: MES test (anti-epilepsy activity), rats, oral (rMES po); conditions: for ED50: Rattus norvegicus, rats, at peak time
Experimental: (§1) Biological Experimental Example. 1: Measurement of Anti-Epilepsy Activity (MES-Test)
(§2) In the MES test (Ref., G. Villetti et al. Neuropharmacology 40(2001) 866-878), an electrical stimulus (mice: 50 mA, 60 Hz, 0.2 sec, and rats: 150 mA, 60 Hz, 0.2 sec in the test animal) supplied by an 11 A Shocker (IITC Life Science Company) was delivered through corneal electrodes. All mice or rats assigned to any electroshock at peak time were treated with each test compound sample which was dissolved in 20% tween 80 prepared by saline solvent applied orally before the test. […] Three doses of the test sample were administered orally to 9-18 animals (3-6 mice per dose) for evaluating the respective doses at which 50% of the animals were protected from seizure (ED50). The ED50 value (median effective close) was calculated by Litchfield and Wicoxon log-probit method which is a dose-response relationship. Experimental animals, male ICR mice and male SD rats, were purchased from OrientBio, Samtako, or Nara Biotech, Korea, and housed in cages (4-5 mice or 3 rats per cage) for 4-5 days. The range of mice body weight was between 19 and 25 grams and range of rats body weight was between 100 and 130 grams.
(§3) The obtained results are shown as mean±sem. The difference between the groups was statistically analyzed by ANOVA, and then further examined by Dunnett's test or Bonferroni test. If p is less than 0.05, it was determined that the difference between the groups had statistical significance.
(§4) The results of anti-epileptic activity of the sulfamate derivative compounds measured in the above Experimental Example are shown in the following Tables 4 and 5.

Male Sprague-Dawley rats [1] = test: Lithium-pilocarpine induced epilepsy test (LI-PILO), prevention test, i.p.; conditions: for Anti-epileptogenesis (rat/ip) Protection %: 6 rats; for Anti-epileptogenesis (rat/ip) Peak Time / ED50: prevention, rat; for ED50: ip, at peak time, read-out: Anti-epileptogenesis (rat/ip) ED50(mg/kg)
Experimental: (§5) Biological Experimental Example 2: Lithium-Pilocarpine Induced Epilepsy Test (LI-PILO Test)
(§6) Male Sprague-Dawley rats (purchased from Orient Bio Inc. Korea) of body weight 175 grams were used for these studies and 3 rats per cage were housed for 4-5 days. On the day prior to SE, rats received 127 mg/kg lithium chloride (Sigma, St. Louis, Mo., U.S.A.) intraperitoneally (i.p.). Approximately 18-20 h following this treatment, rats were given an i.p. injection of 43 mg/kg pilocarpine (Sigma). An i.p. injection of 2 mg/kg methyl-scopolamine (Sigma) was administered 30 min prior to pilocarpine to block the effects of the muscarinic agonist on peripheral cholinergic receptors. Test drugs were dissolved in 20% tween80 (Sigma).
The drugs were administered intraperitoneally (i.p.) in a volume of 2 ul/g body weight. Pharmacological effects of all of the test materials were evaluated to compare test groups (n=6) with a control group (n=6). Control group was administered vehicle only. The efficacy was measured 0.5, 1, 2, or 4 hours after the administration of the test material. The time point that the most animals were protected was defined as peak time and the ED50 was determined at peak time. The animals were then transferred to observation cages and observed continuously for 90 min. Seizure was elicited in approximately 95% of the control group. Protection was defined as complete absence of seizure grade 3˜5 (Racine scale; Racine, 1972) over the 90-min observation period. The effective dose of the compound necessary to protect 50% of the animals against seizures compared to controls (i.e. ED50) was determined by a curve fitting program (Excel 2007, Microsoft).
(§7) The results of Lithium-pilocarpine induced epilepsy test of the sulfamate derivative compounds measured in the above Experimental Example are shown in the following Tables 6.

male ICR mice = test: MES test (anti-epilepsy activity), mice, oral (mMES po); conditions: Mus musculus; for responders at 50 mg/kg: injection amount 50 mg/kg; for responders at 50 mg/kg / responders at 100 mg/kg: read-out: mMES(po) Protection %; for ED50: mice, at peak time; for responders at 100 mg/kg: injection amount 100 mg/kg
Experimental: as §1, §2, §3, §4

Male Sprague-Dawley rats [2] = test: Lithium-pilocarpine induced epilepsy test (LI-PILO), intervention, i.v. at SE onset; conditions: iv; rat, administered at SE onset; read-out: Therapeutic effect (min, rat/lv) ED50(mg/kg)
Experimental: as §5, §6
The drugs were administered intravenously (i.v.) in a volume of 2 ul/g body weight at SE onset. Pharmacological effects of all of the test materials were evaluated to compare test groups (n=3-6) with a control group (n=3-6). Control group was administered vehicle only. The animals were then transferred to observation cages and observed continuously for 90 min. Seizure was elicited in approximately 95% of the control group. […]
as §7

Male Sprague-Dawley rats [3] = test: Lithium-pilocarpine induced epilepsy test (LI-PILO), prevention test, i.p.; conditions: injection amount 30 mg/kg, 3 rats, 1 h
[4] = injection amount 150 mg/kg, 2 h

## CC1(C)O[C@H](c2ccccc2F)[C@@H](COS(N)(=O)=O)O1 [Example 15, ((4R, 5R)-5-(2-fluorophenyl)-2,2-dimethyl-1,3-dioxolan-4-yl)methyl sulfamate]
Male SD rats; injection amount 50 mg/kg, 6 rats
  rMES(po) Protection %: 50^b(66.6%)
Male Sprague-Dawley rats [1]; injection amount 100 mg/kg, 1 h
  Anti-epileptogenesis (rat/ip) Protection %: (16.6%)
Male Sprague-Dawley rats [1]; injection amount 100 mg/kg, 2 h
  Anti-epileptogenesis (rat/ip) Protection %: (50%)
Male Sprague-Dawley rats [1]; [4]
  Anti-epileptogenesis (rat/ip) Protection %: 150^b(16.6%)
Male ICR mice; 4 mice
  responders at 50 mg/kg: 100%

## CC1(C)O[C@H](c2ccccc2Cl)[C@@H](COS(N)(=O)=O)O1 [Example 1, ((4R,5R)-5-(2-chlorophenyl)-2,2-dimethyl-1,3-dioxolan-4-yl)methyl sulfamate]
Male SD rats
  ED50: 1.2 mg/kg
Male Sprague-Dawley rats [1]; [4]
  Anti-epileptogenesis (rat/ip) Protection %: (50%)
Male Sprague-Dawley rats [1]
  Anti-epileptogenesis (rat/ip) Peak Time: 2 h
Male ICR mice
  ED50: 6.5 mg/kg

## CC1(C)O[C@@H](COS(N)(=O)=O)[C@H](c2ccccc2I)O1 [Example 28, ((4S, 5S)-5-(2-iodophenyl)-2,2-dimethyl-1,3-dioxolan-4-yl)methyl sulfamate]
Male SD rats
  ED50: 32.7 mg/kg
Male Sprague-Dawley rats [1]
  ED50: 154 mg/kg
  Anti-epileptogenesis (rat/ip) Peak Time: 1 h
Male ICR mice
  ED50: 15 mg/kg

## CC1(C)O[C@@H](COS(N)(=O)=O)[C@H](c2ccccc2Cl)O1 [Example 2, ((4S, 5S)-5-(2-chlorophenyl)-2,2-dimethyl-1,3-dioxolan-4-yl)methyl sulfamate]
Male SD rats
  ED50: 3.5 mg/kg
Male Sprague-Dawley rats [2]
  ED50: 89 mg/kg
Male Sprague-Dawley rats [1]
  ED50: 97.1 mg/kg
  Anti-epileptogenesis (rat/ip) Peak Time: 4 h
Male ICR mice
  ED50: 9 mg/kg

## Cc1ncsc1[C@@H]1OC(C)(C)O[C@H]1COS(N)(=O)=O [Example 168, ((4S, 5R)-2,2-dimethyl-5-(4-methylthiazol-5-yl)-1,3-dioxolan-4-yl)methylsulfamate]
Male SD rats
  ED50: 4.9 mg/kg
Male ICR mice; 3 mice
  responders at 100 mg/kg: 100%

## CC1(C)O[C@@H](COS(N)(=O)=O)[C@H](c2ccccc2F)O1 [Example 16, ((4S, 5S)-5-(2-fluorophenyl)-2,2-dimethyl-1,3-dioxolan-4-yl)methyl sulfamate]
Male SD rats
  ED50: 7.7 mg/kg
Male ICR mice; 3 mice
  responders at 50 mg/kg: 100%

## Cc1ncsc1[C@H]1OC(C)(C)O[C@@H]1COS(N)(=O)=O [Example 167, ((4R, 5S)-2,2-dimethyl-5-(4-methylthiazol-5-yl)-1,3-dioxolan-4-yl)methylsulfamate]
Male Sprague-Dawley rats [3]
  Anti-epileptogenesis (rat/ip) Protection %: 30^a(100%)
Male Sprague-Dawley rats [1]
  Anti-epileptogenesis (rat/ip) Peak Time: 1 h
Male ICR mice; 3 mice
  responders at 100 mg/kg: 100%

## Nc1ccccc1[C@@H]1OC2(CCCC2)O[C@H]1COS(N)(=O)=O [Example 72, ((2S, 3S)-3-(2-aminophenyl)-1,4-dioxaspiro[4,4]nonan-2-yl)methyl sulfamate]
Male SD rats
  ED50: 1 mg/kg
Male ICR mice
  ED50: 14.2 mg/kg

## CC1(C)O[C@@H](COS(N)(=O)=O)[C@H](c2ccc(Cl)s2)O1 [Example 172, ((4S, 5R)-2,2-dimethyl-5-(5-chlorothiophen-2-yl)-1,3-dioxolan-4-yl)methylsulfamate]
Male SD rats
  ED50: 4.7 mg/kg
Male ICR mice
  ED50: 30.2 mg/kg

## CC1(C)OC(COS(N)(=O)=O)C(c2ccccc2Cl)O1 (mixture of isomers) [Example 4, (5-(2-chlorophenyl)-2,2-dimethyl-1,3-dioxolan-4-yl)methyl sulfamate(SR & RS mixture)]
Male SD rats
  ED50: 5.2 mg/kg
Male ICR mice; 3 mice
  responders at 50 mg/kg: 33%

## NS(=O)(=O)OC[C@@H]1OC(=O)O[C@H]1c1ccccc1[N+](=O)[O-] [Example 90, ((4S, 5S)-5-(2-nitrophenyl)-2-oxo-1,3-dioxolan-4-yl)methyl sulfamate]
Male SD rats
  ED50: 1.1 mg/kg
Male ICR mice
  ED50: 9.2 mg/kg

## CC1(C)O[C@@H](COS(N)(=O)=O)[C@H](c2sc(Cl)nc2Cl)O1 [Example 164, ((4S, 5R)-5-(2,4-dichlorothiazol-5-yl)-2,2-dimethyl-1,3-dioxolan-4-yl)methyl sulfamate]
Male SD rats
  ED50: 13.2 mg/kg
Male ICR mice; 3 mice
  responders at 50 mg/kg: 100%
